test system: IFNα-induced pSTAT5 (pY694) in CD3 positive cells of human whole blood; test: IFNα-Induced STAT Phosphorylation in Human Whole Blood; format: cell-based; conditions: Homo sapiens, 1 h compound incubation, 1000 U/mL recombinant human IFNα A/D for 15 min, pSTAT5 in CD3 positive population, read-out: Human WB IFNα-Induced Stat Phosph. (IC50)
How it was run: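 Read-out is median fluorescence intensity of pSTAT5 (pY694) in the CD3-positive gate, by flow cytometry after fix/lyse and permeabilization. Before that, whole human blood anticoagulated with EDTA or ACD-A received compound for an hour and 1000 U/mL IFNα A/D for 15 min.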

Row | Compound | IC50 [nM]
1 | [2H]C([2H])([2H])NC(=O)c1nnc(NC(=O)C2CC2)cc1Nc1cccc(-c2nc(CC(=O)N3CCOCC3)no2)c1OC [Example 179] | 290
2 | [2H]C([2H])([2H])NC(=O)c1nnc(NC(=O)C2CC2)cc1Nc1cccc(-c2nc([C@H](NC(=O)COC)[C@H](C)O)no2)c1OC [Example 205] | 850
3 | COc1c(Nc2cc(NC(=O)C3CC3)nnc2C(N)=O)cccc1-c1noc([C@H](C)NS(C)(=O)=O)n1 [Example 46] | 140
4 | [2H]C([2H])([2H])NC(=O)c1nnc(NC(=O)C2CC2)cc1Nc1cccc(-c2noc(C(=O)N(C)C)n2)c1OC [Example 17] | 490
5 | [2H]C([2H])([2H])NC(=O)c1nnc(NC(=O)C2CC2)cc1Nc1cccc(-c2noc(CN3CC(O)C3)n2)c1OC [Example 80] | 110
6 | COc1c(Nc2cc(NC(=O)C3CC3)nnc2C(N)=O)cccc1-c1noc(CN(C2CC2)S(C)(=O)=O)n1 [Example 60] | 23
7 | [2H]C([2H])([2H])NC(=O)c1nnc(NC(=O)C2CC2)cc1Nc1cccc(-c2noc(CN3CCCS3(=O)=O)n2)c1OC [Example 76] | 30
8 | [2H]C([2H])([2H])NC(=O)c1nnc(NC(=O)C2CC2)cc1Nc1cccc(-c2ncc(C(=O)NCCN3CCCC(C)C3)s2)c1OC (centres unmarked) [Example 324] | 60
9 | [2H]C([2H])([2H])NC(=O)c1cnc(NC(=O)C2CC2)cc1Nc1cccc(-c2nc(CCO)no2)c1OC [Example 228] | 180
10 | [2H]C([2H])([2H])NC(=O)c1nnc(NC(=O)C2CC2)cc1Nc1cccc(-c2nc(CN(C)S(C)(=O)=O)no2)c1OC [Example 169] | 110
11 | [2H]C([2H])([2H])NC(=O)c1nnc(NC(=O)C2CC2)cc1Nc1cccc(-c2nc(CNC(=O)CN3CCN(S(C)(=O)=O)CC3)no2)c1OC [Example 163] | 1760
12 | [2H]C([2H])([2H])NC(=O)c1nnc(NC(=O)C2CC2)cc1Nc1cccc(-c2nc(CO)no2)c1OC [Example 174] | 560
13 | [2H]C([2H])([2H])NC(=O)c1nnc(NC(=O)C2CC2)cc1Nc1cccc(-c2nc([C@H](C)NC(C)=O)no2)c1OC [Example 183] | 1680
14 | [2H]C([2H])([2H])NC(=O)c1nnc(NC(=O)C2CC2)cc1Nc1cccc(-c2ncc(C(=O)N(C)CC)s2)c1OC [Example 291] | 110
15 | [2H]C([2H])([2H])NC(=O)c1nnc(NC(=O)C2CC2)cc1Nc1cccc(-c2ncc(NC(C)=O)s2)c1OC [Example 279] | 470
16 | COC(=O)N1CCN(Cc2nc(-c3cccc(Nc4cc(NC(=O)C5CC5)nnc4C(N)=O)c3OC)no2)CC1 [Example 39] | 23
17 | [2H]C([2H])([2H])NC(=O)c1nnc(NC(=O)C2CC2)cc1Nc1cccc(-c2nc(CC(=O)NCCO)no2)c1OC [Example 177] | 1030
18 | [2H]C([2H])([2H])NC(=O)c1nnc(NC(=O)C2CC2)cc1Nc1cccc(-c2ncc(C(=O)N3CCCN(C)CC3)s2)c1OC [Example 294] | 70
19 | [2H]C([2H])([2H])NC(=O)c1nnc(NC(=O)C2CC2)cc1Nc1cccc(-c2noc(CC(=O)N3CCOCC3)n2)c1OC [Example 23] | 60
20 | [2H]C([2H])([2H])NC(=O)c1cnc(NC(=O)C2CC2)cc1Nc1cccc(-c2nc(CN3CCOCC3)no2)c1OC [Example 125] | 60
21 | COc1c(Nc2cc(NC(=O)C3CC3)nnc2C(N)=O)cccc1-c1ncc(C(=O)N(C)C)s1 [Example 246] | 30
22 | [2H]C([2H])([2H])NC(=O)c1nnc(NC(=O)C2CC2)cc1Nc1cccc(-c2noc(C(=O)N3CCS(=O)(=O)CC3)n2)c1OC [Example 20] | 1500
23 | [2H]C([2H])([2H])NC(=O)c1nnc(NC(=O)C2CC2)cc1Nc1cccc(-c2ncc(C(=O)NCCN3CCN(C)CC3)s2)c1OC [Example 322] | 80
24 | [2H]C([2H])([2H])NC(=O)c1nnc(NC(=O)C2CC2)cc1Nc1cccc(-c2nc(C(=O)N(C)C)cs2)c1OC [Example 276] | 690
25 | CCS(=O)(=O)N(C)Cc1nc(-c2cccc(Nc3cc(NC(=O)C4CC4)nnc3C(N)=O)c2OC)no1 [Example 57] | 9
26 | [2H]C([2H])([2H])NC(=O)c1nnc(NC(=O)C2CC2)cc1Nc1cccc(-c2noc(C(C)C(=O)N3CCOCC3)n2)c1OC (centres unmarked) [Example 29] | 130
27 | [2H]C([2H])([2H])NC(=O)c1nnc(NC(=O)C2CC2)cc1Nc1cccc(-c2nc(CN3CCN(C(=O)C=C)CC3)no2)c1OC [Example 129] | 260
28 | COc1c(Nc2cc(N)nnc2C(N)=O)cccc1-c1noc(CN2CCN(S(C)(=O)=O)CC2)n1 [Example 109] | > 10000
29 | [2H]C([2H])([2H])NC(=O)c1nnc(NC(=O)C2CC2)cc1Nc1cccc(-c2nc([C@@H](C)NC(=O)OC)no2)c1OC [Example 192] | 870

The next lines start with the values.

Row | IC50 [nM] | Compound
30 | 23 | [2H]C([2H])([2H])NC(=O)c1nnc(Nc2ccc(C)nn2)cc1Nc1cccc(-c2ncc(C(C)O)s2)c1OC (centres unmarked) [Example 392]
31 | 560 | [2H]C([2H])([2H])NC(=O)c1nnc(NC(=O)C2CC2)cc1Nc1cccc(-c2ncc(C(=O)N3CC(=O)NC(=O)C3)s2)c1OC [Example 331]
32 | > 10000 | COc1c(Nc2cc(NC(=O)C3CC3)nnc2C)cccc1-c1ncn(C)n1 [Example 409, N-(5-((2-methoxy-3-(1-methyl-1H-1,2,4-triazol-3-yl)phenyl)amino)-6-methylpyridazin-3-yl)cyclopropanecarboxamide]
33 | 200 | [2H]C([2H])([2H])NC(=O)c1nnc(NC(=O)C2CC2)cc1Nc1cccc(-c2ccn(CCNC(=O)COC)n2)c1OC [Example 469]
34 | 1590 | [2H]C([2H])([2H])NC(=O)c1nnc(NC(=O)C2CC2)cc1Nc1cccc(-c2ccn(CC(=O)NCCOC)n2)c1OC [Example 471]
35 | 590 | [2H]C([2H])([2H])NC(=O)c1cnc(NC(=O)C2CC2)cc1Nc1cccc(-c2csc(C(=O)NCCOC)n2)c1OC [Example 569]
36 | 700 | [2H]C([2H])([2H])NC(=O)c1cnc(Nc2ccc(OC)nn2)cc1Nc1cccc(-c2csc(C(=O)NCCOC)n2)c1OC [Example 567]
37 | 1160 | [2H]C([2H])([2H])NC(=O)c1cnc(NC(=O)C2CC2)cc1Nc1cccc(-c2cnn(CCNC(=O)CC#N)n2)c1OC [Example 440]
38 | 380 | [2H]C([2H])([2H])NC(=O)c1nnc(NC(=O)C2CC2)cc1Nc1cccc(-c2nc(C)c(C(=O)NCCC3CCCN3C)s2)c1OC (centres unmarked) [Example 355]
39 | 100 | [2H]C([2H])([2H])NC(=O)c1nnc(NC(=O)C2CC2)cc1Nc1cccc(-c2ncc(C(=O)NCCCN3CCCC3)s2)c1OC [Example 340]
40 | 840 | [2H]C([2H])([2H])NC(=O)c1nnc(NC(=O)C2CC2)cc1Nc1cccc(-c2cc(C(=O)NCC3CCN(C)C3)n(C)n2)c1OC (centres unmarked) [Example 528]
41 | 1300 | [2H]C([2H])([2H])NC(=O)c1nnc(NC(=O)C2CC2)cc1Nc1cccc(-c2cnn(CCNC(=O)CO)c2)c1OC [Example 558]
42 | 2320 | [2H]C([2H])([2H])NC(=O)c1nnc(NC(=O)C2CC2)cc1Nc1cccc(-c2ccn(CCN(C[C@H](O)CC)C[C@@H](O)CC)n2)c1OC [Example 475]
43 | 170 | [2H]C([2H])([2H])NC(=O)c1nnc(NC(=O)C2CC2)cc1Nc1cccc(-c2ncc(C(=O)N3CCC(CCCO)CC3)s2)c1OC [Example 353]
44 | 2130 | COc1c(Nc2cc(NC(=O)C3CC3)ncc2C(N)=O)cccc1-c1cnn(CCNC(=O)OC(C)(C)C)n1 [Example 444]

Source: patent US12240840B2, “Amide-substituted heterocyclic compounds for the treatment of conditions related to the modulation of IL-12, IL-23 and/or IFN-alpha” (BRISTOL-MYERS SQUIBB COMPANY, priority 2018, dated 2025)
